Measured values taken from ChEMBL document CHEMBL5247656, “Discovery of a Potent, Cooperative, and Selective SOS1 PROTAC ZZ151 with In Vivo Antitumor Efficacy in KRAS-Mutant Cancers” (J Med Chem, 2023).
Activity calls are given as the source filed them. The calls are words filed in the database; no cut-off is given here.

How the values were obtained:
[1] = target: T1, von Hippel-Lindau disease tumor suppressor/Son of sevenless homolog 1 (Homo sapiens) (UniProt Q07889+P40337); assay: PROTAC activity at VHL/SOS1 in human ASPC1 cells harboring KRAS G12D mutant assessed as induction of SOS1 degradation upto 10 uM incubated for 24 hrs by immunoblotting analysis; type: cell-based
[2] = system: A549; assay: Antiproliferative activity against human A549 cells harboring KRAS G12S mutant assessed as inhibition of cell proliferation incubated for 7 days by CellTiterGlo-3D proliferation assay; type: functional, cell-based; details: A549, 168 h
[3] = system: PANC-1; assay: Antiproliferative activity against human PANC-1 cells harboring KRAS G12D mutant assessed as inhibition of cell proliferation incubated for 7 days by CellTiterGlo-3D proliferation assay; type: functional, cell-based; details: PANC-1, 168 h
[4] = system: MIA PaCa-2; assay: Antiproliferative activity against human MIA PaCa-2 cells harboring KRAS G12C mutant assessed as inhibition of cell proliferation incubated for 7 days by CellTiterGlo-3D proliferation assay; type: functional, cell-based; details: MIA PaCa-2, 168 h
[5] = system: NCI-H358; assay: Antiproliferative activity against human NCI-H358 cells harboring KRAS G12C mutant assessed as inhibition of cell proliferation incubated for 7 days by CellTiterGlo-3D proliferation assay; type: functional, cell-based; details: NCI-H358, 168 h
[6] = system: ASPC1; assay: Antiproliferative activity against human ASPC1 cells harboring KRAS G12D mutant assessed as inhibition of cell proliferation incubated for 7 days by CellTiterGlo-3D proliferation assay; type: functional, cell-based; details: ASPC1, 168 h
[7] = system: SW-620; assay: Antiproliferative activity against human SW620 cells harboring KRAS G12V mutant assessed as inhibition of cell proliferation incubated for 7 days by CellTiterGlo-3D proliferation assay; type: functional, cell-based; details: SW-620, 168 h
[8] = system: LoVo; assay: Antiproliferative activity against human LoVo cells harboring KRAS G13D mutant assessed as inhibition of cell proliferation incubated for 7 days by CellTiterGlo-3D proliferation assay; type: functional, cell-based; details: 168 h
[9] = target: T1, von Hippel-Lindau disease tumor suppressor/Son of sevenless homolog 1 (Homo sapiens); assay: PROTAC activity at VHL/SOS1 in human NCI-H358 cells harboring KRAS G12C mutant assessed as induction of SOS1 degradation upto 10 uM incubated for 24 hrs by immunoblotting analysis; type: cell-based
[10] = target: T1, von Hippel-Lindau disease tumor suppressor/Son of sevenless homolog 1 (Homo sapiens); assay: PROTAC activity at VHL/SOS1 in human NCI-H358 cells assessed as induction of SOS1 protein degradation at 0.1 uM incubated for 24 hrs by Immunoblot analysis relative to control; type: cell-based
[11] = target: T1, von Hippel-Lindau disease tumor suppressor/Son of sevenless homolog 1 (Homo sapiens); assay: PROTAC activity at VHL/SOS1 in human NCI-H358 cells assessed as induction of SOS1 protein degradation at 1.0 uM incubated for 24 hrs by Immunoblot analysis relative to control; type: cell-based
[12] = target: T2, Son of sevenless homolog 1 (Homo sapiens) (UniProt Q07889); assay: Co-operativity factor, ratio of Kd for binding affinity to GST-tagged human SOS1 (564 to 1049 reisudes) expressed in Escherichia coli BL21 (DE3) cells assessed as binary complex formation to Kd for binding affinity to GST-tagged human SOS1 (564 to 1049 residues) expressed in Escherichia coli BL21 (DE3) cells assessed as ternary complex formation in the presence of 6His tagged human VCB
T2 sequence (whole entry): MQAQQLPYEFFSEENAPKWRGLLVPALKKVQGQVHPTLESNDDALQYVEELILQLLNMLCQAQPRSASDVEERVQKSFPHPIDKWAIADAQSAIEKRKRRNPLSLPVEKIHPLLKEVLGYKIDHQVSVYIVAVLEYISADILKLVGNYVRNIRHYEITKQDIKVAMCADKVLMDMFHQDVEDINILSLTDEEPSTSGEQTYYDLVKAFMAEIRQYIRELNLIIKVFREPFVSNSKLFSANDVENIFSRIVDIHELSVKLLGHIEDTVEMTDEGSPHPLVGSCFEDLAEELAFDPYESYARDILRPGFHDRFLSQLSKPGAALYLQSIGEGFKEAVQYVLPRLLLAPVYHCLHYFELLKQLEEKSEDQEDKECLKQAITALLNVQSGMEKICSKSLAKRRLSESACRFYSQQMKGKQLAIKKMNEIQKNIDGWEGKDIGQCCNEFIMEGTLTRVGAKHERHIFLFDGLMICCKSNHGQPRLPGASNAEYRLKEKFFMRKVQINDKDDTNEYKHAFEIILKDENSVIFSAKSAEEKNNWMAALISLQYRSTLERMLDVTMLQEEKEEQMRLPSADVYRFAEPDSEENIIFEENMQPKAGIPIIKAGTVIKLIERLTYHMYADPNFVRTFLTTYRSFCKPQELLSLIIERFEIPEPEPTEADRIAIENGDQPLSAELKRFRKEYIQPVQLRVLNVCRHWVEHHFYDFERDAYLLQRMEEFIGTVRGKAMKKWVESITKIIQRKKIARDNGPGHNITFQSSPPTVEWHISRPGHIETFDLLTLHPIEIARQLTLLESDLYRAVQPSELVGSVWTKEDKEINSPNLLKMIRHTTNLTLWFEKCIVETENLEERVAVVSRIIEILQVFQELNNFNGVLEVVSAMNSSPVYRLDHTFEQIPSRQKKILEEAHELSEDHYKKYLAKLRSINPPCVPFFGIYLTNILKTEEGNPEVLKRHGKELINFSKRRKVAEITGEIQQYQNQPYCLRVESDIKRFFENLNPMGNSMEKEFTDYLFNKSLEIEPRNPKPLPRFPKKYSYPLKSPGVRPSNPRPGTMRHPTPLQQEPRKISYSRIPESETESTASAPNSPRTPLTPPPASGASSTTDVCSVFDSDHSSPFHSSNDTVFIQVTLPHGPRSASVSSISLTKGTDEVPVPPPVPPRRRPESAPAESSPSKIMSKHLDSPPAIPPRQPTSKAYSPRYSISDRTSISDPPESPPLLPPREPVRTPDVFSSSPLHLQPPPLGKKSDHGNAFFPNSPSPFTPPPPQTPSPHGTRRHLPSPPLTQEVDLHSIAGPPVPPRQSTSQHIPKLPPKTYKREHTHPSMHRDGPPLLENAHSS

[13] = target: von Hippel-Lindau disease tumor suppressor/Son of sevenless homolog 1/Elongin-B/Elongin-C (Homo sapiens) (UniProt Q07889+P40337+Q15370+Q15369); assay: Binding affinity to GST tagged human SOS1(564 to 1049 residues)-6his tagged human VHL (54 to 213 residues)-human ElonginC (17 to 112 residues)-human ElonginB (1 to 104 residues) expressed in Escherichia coli BL21 (DE3) cells assessed as ternary complex formation by measuring maximal HTRF signals incubated for 15 mins by HTRF analysis
[14] = target: T3, Son of sevenless homolog 1 (Homo sapiens, UniProt Q07889); assay: (§1) Binding affinity to GST-tagged human SOS1 (564 to 1049 residues) expressed in Escherichia coli BL21 (DE3) cells assessed as binary complex formation by measuring dissociation constant incubated for 15 mins by fluorescence polarization-based displacement assay
T3 sequence (Q07889 whole entry): T2 sequence (whole entry)

[15] = target: T3, Son of sevenless homolog 1; assay: as §1, with “ternary” for “binary”, “mins in the presence of 6His tagged human VCB” for “mins”
[16] = target: T1, von Hippel-Lindau disease tumor suppressor/Son of sevenless homolog 1 (Homo sapiens); assay: PROTAC activity at VHL/SOS1 in human NCI-H358 cells assessed as induction of SOS1 protein degradation by measuring maximal efficacy at 2 to 2000 nM incubated for 24 hrs by Immunoblot analysis relative to control; type: cell-based; details: dose 2-2000 nM
[17] = Toxicity in BALB/c nude mouse xenografted with human SW620 cells harboring KRAS G12V mutant assessed as body weight loss at 50 mg/kg, ip administered twice daily for 2 weeks; type: organism-based, SW-620; details: in vivo, 336 h
[18] = system: SW-620; assay: In vivo Inhibition of ERK in human SW620 cells harboring KRAS G12V mutant xenografted BALB/c nude mouse assessed as inhibition of ERK phosphorylation at 50 mg/kg, ip administered twice daily for 2 weeks by Immunoblot analysis; type: functional, organism-based
[19] = system: SW-620; assay: In vivo Inhibition of ERK in human SW620 cells harboring KRAS G12V mutant xenografted BALB/c nude mouse assessed as inhibition of ERK phosphorylation in tumor at 50 mg/kg, ip administered twice daily for 2 weeks by immunohistochemistry analysis; type: functional, organism-based
[20] = system: ASPC1; assay: In vivo Inhibition of ERK in human ASPC1 cells harboring KRAS G12D mutant xenografted BALB/c nude mouse assessed as inhibition of ERK phosphorylation at 50 mg/kg, ip administered twice daily for 3 weeks by Immunoblot analysis; type: functional, organism-based
[21] = system: ASPC1; assay: In vivo Inhibition of ERK in human ASPC1 cells harboring KRAS G12D mutant xenografted BALB/c nude mouse assessed as inhibition of ERK phosphorylation in tumor at 50 mg/kg, ip administered twice daily for 3 weeks by immunohistochemical analysis; type: functional, organism-based
[22] = system: SW-620; assay: Antitumor activity against human SW620 cells harboring KRAS G12V mutant xenografted in BALB/c nude mouse assessed as tumor growth inhibition at 50 mg/kg, ip administered twice daily for 2 weeks relative to control; type: functional; details: SW-620, 336 h, read-out: TGI
[23] = system: ASPC1; assay: Antitumor activity against human ASPC1 cells harboring KRAS G12D mutant xenografted in BALB/c nude mouse assessed as tumor growth inhibition at 50 mg/kg, ip administered twice daily for 3 weeks relative to control; type: functional; details: ASPC1, 504 h, read-out: TGI
[24] = Toxicity in BALB/c nude mouse xenografted with human ASPC1 cells harboring KRAS G12D mutant assessed as body weight loss at 50 mg/kg, ip administered twice daily for 3 weeks; type: organism-based; details: in vivo, 504 h
[25] = target: T2, Son of sevenless homolog 1 (Homo sapiens); assay: Induction of SOS1 degradation in human NCI-H358 cells at 0.1 to 1 uM incubated for 24 hrs by immunoblot analysis; type: cell-based; details: dose 0.1-1 µM
[26] = target: von Hippel-Lindau disease tumor suppressor/Son of sevenless homolog 1 (Homo sapiens, UniProt P40337+Q07889); assay: PROTAC activity at VHL/SOS1 in human NCI-H358 cells assessed as induction of SOS1 protein degradation incubated for 24 hrs by Immunoblot analysis; type: cell-based

Structure (SMILES)	IC50 [2] [nM]	IC50 [3] [nM]	IC50 [4] [nM]	IC50 [5] [nM]	IC50 [6] [nM]	IC50 [7] [nM]	IC50 [8] [nM]	Activity [10] [%]	Activity [11] [%]	Ratio [12]	Activity [13]	Kd [14] [nM]	Kd [15] [nM]	Emax [16] [%]	also measured
COc1cc2nc(C)nc(N[C@H](C)c3cc(N)cc(C(F)(F)F)c3)c2cc1C1CCN(C(=O)CCCCCC(=O)N[C@H](C(=O)N2C[C@@H](O)C[C@H]2C(=O)N[C@@H](C)c2ccc(-c3scnc3C)cc2)C(C)(C)C)CC1	731	188	957	457	302	303	> 1000								Activity [1]: inactive; Activity [9]: inactive
COc1cc2nc(C)nc(N[C@H](C)c3cc(N)cc(C(F)(F)F)c3)c2cc1C1CCN(C(=O)CCCOCC(=O)N[C@H](C(=O)N2C[C@H](O)C[C@H]2C(=O)N[C@@H](C)c2ccc(-c3scnc3C)cc2)C(C)(C)C)CC1								1.36	6.52	2.3	inactive	63.5	27.8	20.9	
COc1cc2nc(C)nc(N[C@H](C)c3cc(N)cc(C(F)(F)F)c3)c2cc1O[C@H]1CCOC1	263	17.8	24.8	16.5	64.4	30.1	142								Activity [17]: Non-Toxic; inhibition [18]: Active; inhibition [19]: Active; inhibition [20]: Active; inhibition [21]: Active; inhibition in vivo at 50 mg/kg [22]: 61.4%; inhibition in vivo at 50 mg/kg [23]: 43.6%; Activity [24]: Non-Toxic
COc1cc2nc(C)nc(NC(C)c3cc(N)cc(C(F)(F)F)c3)c2cc1C1CCN(C(C)=O)CC1 (configuration not stated)	134	23.1	48.5	74.6	36.7	36.3	79.8				inactive	26.9	26.5		Activity [25]: inactive
COc1cc2nc(C)nc(N[C@H](C)c3cc(N)cc(C(F)(F)F)c3)c2cc1C1CCN(C(=O)CCCCCCC(=O)N[C@H](C(=O)N2C[C@H](O)C[C@H]2C(=O)N[C@@H](C)c2ccc(-c3scnc3C)cc2)C(C)(C)C)CC1								25.2	47.3	2.9	inactive	78.6	27.1	39.7	
COc1cc2nc(C)nc(N[C@H](C)c3cc(N)cc(C(F)(F)F)c3)c2cc1C1CCN(C(=O)CCCCC(=O)N[C@H](C(=O)N2C[C@H](O)C[C@H]2C(=O)N[C@@H](C)c2ccc(-c3scnc3C)cc2)C(C)(C)C)CC1								16.4	37	2.8	inactive	75.7	26.7	42.9	
COc1cc2nc(C)nc(N[C@H](C)c3cc(N)cc(C(F)(F)F)c3)c2cc1C1CCN(C(=O)COCCCC(=O)N[C@H](C(=O)N2C[C@H](O)C[C@H]2C(=O)N[C@@H](C)c2ccc(-c3scnc3C)cc2)C(C)(C)C)CC1								54.6	90.2	8.9		155	17.4	97.9	EC50 [26]: 49.3 nM
COc1cc2nc(C)nc(N[C@H](C)c3cc(N)cc(C(F)(F)F)c3)c2cc1C1CCN(C(=O)CCOCCC(=O)N[C@H](C(=O)N2C[C@H](O)C[C@H]2C(=O)N[C@@H](C)c2ccc(-c3scnc3C)cc2)C(C)(C)C)CC1								0	22.9	2.8	inactive	95.4	33.6	37.6	
COc1cc2nc(C)nc(N[C@H](C)c3cc(N)cc(C(F)(F)F)c3)c2cc1C1CCN(CCCCCCC(=O)N[C@H](C(=O)N2C[C@H](O)C[C@H]2C(=O)N[C@@H](C)c2ccc(-c3scnc3C)cc2)C(C)(C)C)CC1								9.77	10.7	2.7	inactive	44.2	16.3	9.1	
